Consider 10 compounds from ChEMBL document CHEMBL5465560, “Selectivity Literature for EUbOPEN Chemogenomic Library” (2024).

For assay [1], the target named is Ephrin type-A receptor 7 (Homo sapiens) (UniProt Q15375). Description: Selectivity interaction (Upstate Kinase Profiler service (Millipore)) EUB0000056c EPHA7. Conditions: at 1 µM.
Assay [2] has as its target STE20/SPS1-related proline-alanine-rich protein kinase (Homo sapiens) (UniProt Q9UEW8). Nature of the assay: Selectivity interaction (ProQinase) EUB0000171b STK39.
Assay [3] concerns the target Non-receptor tyrosine-protein kinase TYK2 (Homo sapiens, UniProt P29597). Conditions: at 10 µM.
Assay [4] deals with Phosphatidylinositol 4-phosphate 5-kinase type-1 gamma (Homo sapiens) (UniProt O60331). Description: Selectivity interaction (KinomeScan (DiscoverX)) EUB0000092b PIP5K1C. The settings on record: at 10 µM.
Assay [5] addresses T1, Muscarinic acetylcholine receptor M2 (Homo sapiens) (UniProt P08172).
T1 sequence (whole entry): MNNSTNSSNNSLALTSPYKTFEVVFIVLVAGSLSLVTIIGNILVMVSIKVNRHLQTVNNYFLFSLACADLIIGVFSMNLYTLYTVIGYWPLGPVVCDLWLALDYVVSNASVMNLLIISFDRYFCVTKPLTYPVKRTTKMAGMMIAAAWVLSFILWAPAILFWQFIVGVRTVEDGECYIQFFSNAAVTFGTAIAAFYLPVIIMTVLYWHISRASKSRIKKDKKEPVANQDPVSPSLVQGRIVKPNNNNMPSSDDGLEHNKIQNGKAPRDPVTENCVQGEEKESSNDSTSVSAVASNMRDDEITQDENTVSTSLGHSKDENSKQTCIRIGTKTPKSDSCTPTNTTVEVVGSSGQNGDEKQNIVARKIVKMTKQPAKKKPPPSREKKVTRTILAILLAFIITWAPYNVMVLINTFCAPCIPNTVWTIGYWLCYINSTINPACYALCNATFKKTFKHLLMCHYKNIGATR
Nature of the assay: Selectivity interaction (Panel of non-epigenetic targets (kinases, GPCRs, ion channels, and transporters, Eurofins) ) EUB0000271b CHRM2. The settings on record: at 1 µM.

Assay [6] concerns Phosphatidylinositol 4,5-bisphosphate 3-kinase catalytic subunit alpha isoform (Homo sapiens), P42336 [I800L]. The settings on record: at 10 µM.
Chain of Phosphatidylinositol 4,5-bisphosphate 3-kinase catalytic subunit alpha isoform (Homo sapiens), P42336 [I800L] (P42336 whole entry I800L, canonical isoform): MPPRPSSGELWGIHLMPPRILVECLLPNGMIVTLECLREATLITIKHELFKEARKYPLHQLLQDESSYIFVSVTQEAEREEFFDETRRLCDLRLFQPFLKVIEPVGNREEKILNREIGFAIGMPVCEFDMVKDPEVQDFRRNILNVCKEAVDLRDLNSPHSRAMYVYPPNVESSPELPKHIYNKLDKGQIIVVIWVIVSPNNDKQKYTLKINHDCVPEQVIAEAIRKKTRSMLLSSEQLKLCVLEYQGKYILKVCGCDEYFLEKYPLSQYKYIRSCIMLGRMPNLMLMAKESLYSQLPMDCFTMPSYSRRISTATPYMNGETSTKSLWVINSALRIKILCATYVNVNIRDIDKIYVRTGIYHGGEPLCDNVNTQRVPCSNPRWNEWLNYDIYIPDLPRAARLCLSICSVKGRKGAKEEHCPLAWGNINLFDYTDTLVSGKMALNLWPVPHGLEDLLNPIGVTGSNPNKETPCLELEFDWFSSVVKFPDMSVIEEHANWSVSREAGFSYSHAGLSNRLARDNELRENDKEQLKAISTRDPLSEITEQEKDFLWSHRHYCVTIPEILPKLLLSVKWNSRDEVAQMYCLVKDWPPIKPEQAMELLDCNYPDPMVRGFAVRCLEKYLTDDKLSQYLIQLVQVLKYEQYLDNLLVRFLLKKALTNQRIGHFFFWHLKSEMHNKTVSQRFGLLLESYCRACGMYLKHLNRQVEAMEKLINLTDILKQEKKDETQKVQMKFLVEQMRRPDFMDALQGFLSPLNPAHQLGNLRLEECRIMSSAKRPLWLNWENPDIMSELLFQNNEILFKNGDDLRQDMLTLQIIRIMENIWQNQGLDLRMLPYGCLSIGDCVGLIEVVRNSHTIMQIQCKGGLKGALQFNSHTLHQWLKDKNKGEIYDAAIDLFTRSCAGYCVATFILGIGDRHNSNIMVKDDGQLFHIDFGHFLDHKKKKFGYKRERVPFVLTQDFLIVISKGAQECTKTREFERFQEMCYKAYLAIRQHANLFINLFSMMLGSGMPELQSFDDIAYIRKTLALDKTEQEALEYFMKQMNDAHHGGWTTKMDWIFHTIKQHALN
The target in assay [7] is Phosphatidylinositol 3-kinase catalytic subunit type 3 (Homo sapiens, UniProt Q8NEB9). Nature of the assay: Selectivity interaction (ActivX KiNativ screen (kinase selectivity in THP-1 cell lysates)) EUB0000639a PIK3C3. It counts as subcellular. Conditions: lysate.
Chain of Phosphatidylinositol 3-kinase catalytic subunit type 3 (Q8NEB9 whole entry): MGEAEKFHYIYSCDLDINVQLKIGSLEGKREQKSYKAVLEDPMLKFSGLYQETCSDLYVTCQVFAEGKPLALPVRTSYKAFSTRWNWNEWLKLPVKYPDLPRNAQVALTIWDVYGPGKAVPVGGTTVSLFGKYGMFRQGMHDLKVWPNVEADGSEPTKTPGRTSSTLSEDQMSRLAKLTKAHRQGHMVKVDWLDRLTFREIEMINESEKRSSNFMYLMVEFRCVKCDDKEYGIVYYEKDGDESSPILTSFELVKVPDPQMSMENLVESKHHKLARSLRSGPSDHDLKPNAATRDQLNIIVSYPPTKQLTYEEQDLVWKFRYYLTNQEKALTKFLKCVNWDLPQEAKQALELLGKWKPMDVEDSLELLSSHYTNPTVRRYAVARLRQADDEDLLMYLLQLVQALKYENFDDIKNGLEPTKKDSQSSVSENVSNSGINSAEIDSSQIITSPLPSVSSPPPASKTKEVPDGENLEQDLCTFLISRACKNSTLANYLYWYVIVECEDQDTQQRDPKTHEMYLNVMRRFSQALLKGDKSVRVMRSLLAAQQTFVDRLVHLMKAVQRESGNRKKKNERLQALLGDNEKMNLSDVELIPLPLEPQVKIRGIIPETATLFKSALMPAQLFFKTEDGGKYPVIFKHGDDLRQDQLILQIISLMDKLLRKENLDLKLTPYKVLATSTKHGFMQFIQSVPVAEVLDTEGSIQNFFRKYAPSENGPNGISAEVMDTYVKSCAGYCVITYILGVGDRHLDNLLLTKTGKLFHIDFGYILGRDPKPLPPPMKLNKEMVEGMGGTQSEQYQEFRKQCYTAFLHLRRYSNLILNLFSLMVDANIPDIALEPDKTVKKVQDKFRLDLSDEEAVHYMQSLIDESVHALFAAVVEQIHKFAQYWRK
Assay [8] addresses T2, Serine/threonine-protein kinase ULK2 (Homo sapiens) (UniProt Q8IYT8).
T2 sequence (whole entry): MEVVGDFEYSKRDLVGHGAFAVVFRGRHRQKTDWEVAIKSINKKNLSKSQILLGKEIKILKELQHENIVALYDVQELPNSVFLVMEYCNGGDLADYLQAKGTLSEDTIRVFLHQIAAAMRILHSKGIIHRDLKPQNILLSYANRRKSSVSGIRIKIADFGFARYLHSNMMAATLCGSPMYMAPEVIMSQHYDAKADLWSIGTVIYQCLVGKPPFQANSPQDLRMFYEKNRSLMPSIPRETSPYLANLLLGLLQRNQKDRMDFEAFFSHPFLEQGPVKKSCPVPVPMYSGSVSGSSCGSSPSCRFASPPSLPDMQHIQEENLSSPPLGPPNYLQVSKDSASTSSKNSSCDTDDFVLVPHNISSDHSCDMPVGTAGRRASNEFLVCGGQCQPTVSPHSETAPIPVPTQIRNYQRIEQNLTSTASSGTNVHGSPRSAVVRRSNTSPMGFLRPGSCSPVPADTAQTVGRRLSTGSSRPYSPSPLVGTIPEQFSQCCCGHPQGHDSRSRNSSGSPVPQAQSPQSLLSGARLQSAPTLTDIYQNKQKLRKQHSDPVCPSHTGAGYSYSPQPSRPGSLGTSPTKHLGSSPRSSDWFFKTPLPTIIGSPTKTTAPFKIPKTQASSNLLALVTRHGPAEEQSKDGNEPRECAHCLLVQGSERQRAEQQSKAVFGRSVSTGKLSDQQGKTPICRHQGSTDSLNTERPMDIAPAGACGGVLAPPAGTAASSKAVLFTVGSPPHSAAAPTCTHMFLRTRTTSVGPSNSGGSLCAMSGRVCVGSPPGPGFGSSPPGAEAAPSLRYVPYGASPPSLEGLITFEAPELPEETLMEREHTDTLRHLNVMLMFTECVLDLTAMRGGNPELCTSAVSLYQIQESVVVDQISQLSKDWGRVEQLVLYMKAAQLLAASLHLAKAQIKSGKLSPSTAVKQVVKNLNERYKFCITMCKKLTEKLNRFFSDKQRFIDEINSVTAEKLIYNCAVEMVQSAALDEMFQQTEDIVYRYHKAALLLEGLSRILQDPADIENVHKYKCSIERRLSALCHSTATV
Nature of the assay: Selectivity interaction (KinomeScan (DiscoverX)) EUB0001619a ULK2. The settings on record: at 1 µM.

Assay [9] has as its target Ribosomal protein S6 kinase alpha-1 (Homo sapiens, UniProt Q15418). Nature of the assay: Selectivity interaction (ActivX KiNativ screen (ex vivo kinase selectivity in human PBMCs)) EUB0001619a RPS6KA1. It counts as cell-based. The settings on record: PBMC, at 1 µM.
For assay [10], the target named is T3, Phosphatidylinositol 5-phosphate 4-kinase type-2 alpha (Homo sapiens) (UniProt P48426).
T3 sequence (whole entry): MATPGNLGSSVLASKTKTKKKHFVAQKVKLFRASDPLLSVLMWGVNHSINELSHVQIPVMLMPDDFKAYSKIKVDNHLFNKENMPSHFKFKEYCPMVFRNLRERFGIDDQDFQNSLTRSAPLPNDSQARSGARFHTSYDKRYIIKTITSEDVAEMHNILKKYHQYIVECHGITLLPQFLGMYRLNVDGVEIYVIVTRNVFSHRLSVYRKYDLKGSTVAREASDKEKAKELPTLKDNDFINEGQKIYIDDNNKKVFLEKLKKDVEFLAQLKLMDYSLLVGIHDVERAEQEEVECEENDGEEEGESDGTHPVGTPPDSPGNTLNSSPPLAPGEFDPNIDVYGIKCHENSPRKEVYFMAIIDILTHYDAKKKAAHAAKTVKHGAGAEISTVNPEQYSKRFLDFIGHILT
Nature of the assay: Selectivity interaction (Kinase panel (KiNativ target engagement assay in Jurkat cells)) EUB0001635a PIP4K2A. It counts as cell-based. The settings on record: Selectivity number of off-targets 0.0, Selectivity number of targets 233.0, Source Knowledge https://www.sciencedirect.com/science/article/pii/S2451945619300674?via%3Dihub, at 1 µM.

The target in assay [11] is Mitogen-activated protein kinase kinase kinase 20 (Homo sapiens) (UniProt Q9NYL2). Description: Selectivity interaction (KinomeScan (DiscoverX)) EUB0000618a MAP3K20. Conditions: at 10 µM.
Chain of Mitogen-activated protein kinase kinase kinase 20 (Homo sapiens) (Q9NYL2 2-800 limits assumed): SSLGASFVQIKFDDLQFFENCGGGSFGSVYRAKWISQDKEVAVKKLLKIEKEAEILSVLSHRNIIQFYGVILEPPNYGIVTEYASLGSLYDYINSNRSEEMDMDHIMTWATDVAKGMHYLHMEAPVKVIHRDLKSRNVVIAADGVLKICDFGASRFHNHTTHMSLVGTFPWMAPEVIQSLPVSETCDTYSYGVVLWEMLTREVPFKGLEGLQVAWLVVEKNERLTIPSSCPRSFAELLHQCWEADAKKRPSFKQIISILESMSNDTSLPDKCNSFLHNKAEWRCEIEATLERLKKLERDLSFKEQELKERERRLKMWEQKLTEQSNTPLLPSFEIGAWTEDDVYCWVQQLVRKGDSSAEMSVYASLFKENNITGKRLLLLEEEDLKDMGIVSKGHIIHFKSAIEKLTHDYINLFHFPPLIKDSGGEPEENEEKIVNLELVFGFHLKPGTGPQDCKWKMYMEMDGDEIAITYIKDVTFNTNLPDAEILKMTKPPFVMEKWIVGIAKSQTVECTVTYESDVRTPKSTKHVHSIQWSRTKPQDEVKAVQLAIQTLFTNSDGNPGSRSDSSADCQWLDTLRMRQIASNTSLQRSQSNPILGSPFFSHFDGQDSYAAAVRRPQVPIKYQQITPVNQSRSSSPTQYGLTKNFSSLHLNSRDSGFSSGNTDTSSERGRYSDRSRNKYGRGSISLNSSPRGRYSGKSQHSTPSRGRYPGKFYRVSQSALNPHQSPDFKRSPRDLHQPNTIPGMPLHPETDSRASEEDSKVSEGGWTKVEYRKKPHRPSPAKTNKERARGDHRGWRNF

Chain of Ephrin type-A receptor 7 (Homo sapiens) (Q15375 28-998 limits assumed): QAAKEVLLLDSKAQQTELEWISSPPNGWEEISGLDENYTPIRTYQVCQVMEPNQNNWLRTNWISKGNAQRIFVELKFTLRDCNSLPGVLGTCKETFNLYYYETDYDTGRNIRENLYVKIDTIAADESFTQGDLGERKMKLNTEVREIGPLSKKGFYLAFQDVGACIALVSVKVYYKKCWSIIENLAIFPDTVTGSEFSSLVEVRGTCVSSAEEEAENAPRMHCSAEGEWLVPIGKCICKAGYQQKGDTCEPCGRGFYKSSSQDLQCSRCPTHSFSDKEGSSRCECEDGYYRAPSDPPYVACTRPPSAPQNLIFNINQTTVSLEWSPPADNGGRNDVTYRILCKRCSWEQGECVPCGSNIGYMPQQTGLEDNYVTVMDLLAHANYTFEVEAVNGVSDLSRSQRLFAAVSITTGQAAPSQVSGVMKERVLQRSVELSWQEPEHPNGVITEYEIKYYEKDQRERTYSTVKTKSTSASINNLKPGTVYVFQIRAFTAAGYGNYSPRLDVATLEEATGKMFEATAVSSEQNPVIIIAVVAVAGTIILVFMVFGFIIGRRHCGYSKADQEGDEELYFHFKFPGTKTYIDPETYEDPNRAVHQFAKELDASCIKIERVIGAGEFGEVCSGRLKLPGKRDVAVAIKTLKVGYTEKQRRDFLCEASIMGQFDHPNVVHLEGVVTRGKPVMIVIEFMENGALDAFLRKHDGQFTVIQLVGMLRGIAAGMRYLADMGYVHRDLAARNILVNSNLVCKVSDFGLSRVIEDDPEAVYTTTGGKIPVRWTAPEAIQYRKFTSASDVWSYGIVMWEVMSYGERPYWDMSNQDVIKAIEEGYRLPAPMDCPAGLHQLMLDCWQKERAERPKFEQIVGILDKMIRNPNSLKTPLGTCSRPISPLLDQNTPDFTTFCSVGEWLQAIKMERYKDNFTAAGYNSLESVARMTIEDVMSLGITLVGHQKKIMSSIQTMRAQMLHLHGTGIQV
Chain of Non-receptor tyrosine-protein kinase TYK2 (P29597 whole entry): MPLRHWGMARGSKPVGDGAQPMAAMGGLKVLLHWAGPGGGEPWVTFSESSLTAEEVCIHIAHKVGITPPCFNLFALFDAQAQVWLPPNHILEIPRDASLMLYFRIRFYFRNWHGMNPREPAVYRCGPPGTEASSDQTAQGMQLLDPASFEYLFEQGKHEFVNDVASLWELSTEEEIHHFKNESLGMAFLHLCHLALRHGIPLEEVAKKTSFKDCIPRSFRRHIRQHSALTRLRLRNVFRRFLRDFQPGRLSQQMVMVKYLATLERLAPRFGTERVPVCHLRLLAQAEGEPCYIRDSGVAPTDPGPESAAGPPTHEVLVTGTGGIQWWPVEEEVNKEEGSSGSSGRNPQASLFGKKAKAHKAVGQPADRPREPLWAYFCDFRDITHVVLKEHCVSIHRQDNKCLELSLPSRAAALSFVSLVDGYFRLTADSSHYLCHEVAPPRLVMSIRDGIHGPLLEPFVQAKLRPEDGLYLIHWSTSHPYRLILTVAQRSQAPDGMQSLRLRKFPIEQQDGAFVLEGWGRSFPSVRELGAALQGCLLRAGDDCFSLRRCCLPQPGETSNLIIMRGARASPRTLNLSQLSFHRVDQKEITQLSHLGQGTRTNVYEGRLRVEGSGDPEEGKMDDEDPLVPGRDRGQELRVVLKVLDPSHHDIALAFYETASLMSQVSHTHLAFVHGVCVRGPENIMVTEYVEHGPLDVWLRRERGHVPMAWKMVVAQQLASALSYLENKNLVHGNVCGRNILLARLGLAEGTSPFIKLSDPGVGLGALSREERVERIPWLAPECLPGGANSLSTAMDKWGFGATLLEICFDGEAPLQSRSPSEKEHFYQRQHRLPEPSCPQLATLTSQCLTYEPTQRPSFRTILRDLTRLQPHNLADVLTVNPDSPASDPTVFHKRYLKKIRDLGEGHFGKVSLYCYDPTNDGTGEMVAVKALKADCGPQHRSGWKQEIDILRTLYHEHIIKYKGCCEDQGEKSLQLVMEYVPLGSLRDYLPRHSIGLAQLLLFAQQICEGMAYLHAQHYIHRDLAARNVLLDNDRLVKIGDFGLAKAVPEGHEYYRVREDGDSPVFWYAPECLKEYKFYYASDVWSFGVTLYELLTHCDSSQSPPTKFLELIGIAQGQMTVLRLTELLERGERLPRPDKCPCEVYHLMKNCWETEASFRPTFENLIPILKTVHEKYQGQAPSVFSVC

In the case of `Cc1ccc(-c2ccc3c(ccc4sc5c(c43)NC[C@@H](C)NC5=O)n2)cn1`, the % of inhibition in assay [1] was -5%.

With `C=CC(=O)Nc1cccc(C(=O)Nc2ccc(Nc3cc(-c4[nH]c(SC)nc4C)ccn3)cc2)c1`, the results for the % of control in assay [2] (at 1 µM) and in [2] (at 5 µM) were 100% and 73%, respectively.

Turning to `Cc1cc([C@@H](C)Nc2ccccc2C(=O)O)c2nc(N3CCOCC3)cc(=O)n2c1` [AZD-6482], the % of control in assay [3] came to 100%.

Regarding `CCC(=O)N1CCN(c2ccc(-n3c(=O)ccc4cnc5ccc(-c6cnc7ccccc7c6)cc5c43)cc2C(F)(F)F)CC1`, the % of control in assay [4] came to 80%.

Take `Cc1cc(C)cc([C@@H]2c3cc(C)ccc3NC(=O)CN2C(=O)c2ccc(Br)s2)c1`: in [5], the % of inhibition is -5%.

In the case of `CNC(=O)Nc1ccc(-c2nc(N3CC4CCC(C3)O4)c3cnn(C4CCC5(CC4)OCCO5)c3n2)cc1`, the % of control in [6] is 5%.

With `CC[C@@H]1[C@H](F)C(=O)N[C@@H]1COc1nccc2cc(C(N)=O)c(OC)cc12` [ZIMLOVISERTIB], the % of inhibition is 1% in assay [7] (at 0.01 µM); -8.9% in [7] (at 0.04 µM); -9.3% in assay [7] (at 0.2 µM); 2.6% in assay [7] (at 1 µM); 6.3% in [7] (at 5 µM).

In assay [8], `N#Cc1cccc(-c2c[nH]c3ncnc(N4CCOCC4)c23)c1` gave a % of control of 69%. The % of inhibition in assay [9] was -1%.

Turning to `C=CC(=O)Nc1ccc(C(=O)Nc2[nH]nc3c2CN(C(=O)N[C@H](CN(C)C)c2ccccc2)C3(C)C)cc1`, the % of engagement in assay [10] is -3.2%.

In [11], `O[C@H]1CC[C@H](Nc2ncc3nc(Nc4c(F)cc(F)cc4F)n([C@H]4CCOC4)c3n2)CC1` came in with a % of control of 100%.
